From patent US20230000876A1, “TREATING CANCERS WITH A CYCLIN-DEPENDENT KINASE INHIBITOR” (Nuvation Bio Inc., priority 2021, published 2023)

What was measured:
[1] = system: 7 melanoma cell lines (A375, COLO 829, SK-MEL-3, SK-MEL-5, SK-MEL-24, SK-MEL-28, SK-MEL-31); test: Anti-proliferation assay, 7 melanoma cell lines taken together; format: cell-based
Experimental: (§1) Inhibition rate (IR) of the tested compounds was determined by the following formula: IR (%)=(1−(RLU compound−RLU day0)/(RLU control−RLU day0))*100%. The inhibitions of different dose of compound were calculated in Excel file, and then were used to plot inhibition curves and evaluate related parameters, such as Min (%), Max (%) and GI50. The data were interpreted by GraphPad Prism.
The anti-proliferation effect of the compound of formula (I) in 7 CNS melanoma cell lines was evaluated.

[2] = system: tumor fragments from a mCRPC patient; test: Enzalutamide-resistant patient-derived xenograft prostate model (ST2347 PDX); format: in vivo, male Balb/c nude mice
PC-9-luc = test: CellTiter-Glo anti-proliferation assay, PC-9-luc; format: cell-based
Experimental: The anti-proliferation effect of 2 compounds (the compound of formula (I) and temozolomide) in 7 CNS metastasis cell lines (MOLT-4-luc, Nalm-6-luc, NCI-H460-luc, ACHN-luc2, PC-9-luc, H1975-luc, and KM12-luc) was evaluated.
The plating of cells and compound treatments are shown below in the plate map (Table 12). One plate was needed for the test of 2 compounds (the compound of formula (I) and temozolomide) in one cell line. The compound of formula (I) was tested from 10 μM, 3-fold serial dilution. Temozolomide was tested from 100 μM, 3-fold serial dilution.
All the cell lines were maintained in culture conditions at 37° C. in an atmosphere with 5% CO2 in air. The tumor cells were routinely subcultured. The cells growing in an exponential growth phase were harvested and counted for plating.
Cells were counted by haemocytometer with Trypan blue staining. Next, 135 μL of cell suspension were plated into the assay plates according to the plate map and 135 μL of assay medium into the blank wells. The plates were incubated at 37° C., 5% CO2, 95% air and 100% relative humidity overnight.
(§2) 4.4.4 Compound Plate (10×) Preparation and Compound Treatment • 10× concentrate compound plate preparation: Add 198 μL of assay medium into each well of the V-bottom plate; then transfer 2 μL of the stock compound solution of each concentration from the stock plate. Add 2 μL of DMSO into the Blank and Control wells. Pipette up and down to mix well. This V-plate is designated as the 10× concentrate compound plate. • For day 0 plate, add 15 μL of the DMSO-medium into the Control wells. The final DMSO concentration was 0.1%. Then directly proceed to cell viability assay. • For assay plate, add 15 μL of the compound-medium of each well from the 10× concentrate compound plate into the cells in 96-well assay plate according to the plate map. Add 15 μL of the DMSO-medium into the Blank and Control wells. The final DMSO concentration was 0.1%. • Return the assay plate into incubator and incubate for 6 days.
(§3) The procedures were performed according to the Promega CellTiter-Glo Luminescent Cell Viability Assay Kit manual (Promega-G7573). • The CellTiter-Glo buffer was thawed and equilibrated to room temperature prior to use. • CellTiter-Glo Substrate was equilibrated to room temperature prior to use. • The entire liquid volume of CellTiter-Glo Buffer was transferred into the amber bottle containing CellTiter-Glo Substrate to reconstitute the lyophilized enzyme/substrate mixture. This forms the CellTiter-Glo Reagent. • The contents were mixed by gently vortexing to obtain a homogeneous solution. • The plate was equilibrated and its contents to room temperature for approximately 30 minutes. 75 μL (equal to the half volume of culture medium present in each well) CellTiter-Glo • Reagent was added in each well. Plates were covered with aluminum foil to protect from light. • The contents were mixed for 2 minutes on an orbital shaker to induce cell lysis. • The plate was incubated at room temperature for 20 minutes to stabilize luminescent signal. • Record luminescence on the 2104 EnVision plate reader.
as §1

SK-MEL-3 = test: Cell viability assay, melanoma cell line SK-MEL-3; format: cell-based
Experimental: as §2
as §3, with “This forms the CellTiter-Glo Reagent. • The contents were mixed by gently vortexing to obtain a homogeneous solution. • The plate was equilibrated and its contents to room temperature for approximately 30 minutes. 75 μL (equal to the half volume of culture medium present in each well) CellTiter-Glo • Reagent was added in each well.” left out
as §1, with “The data were interpreted by GraphPad Prism.” left out

[3] = inhibition rate, 6 days, Compound (I) from 10 μM, temozolomide from 100 μM, 3-fold, 9 points

## CC(C)N1CCOc2c(F)cc(-c3nc(Nc4ccc(C5CCN(C)CC5)cn4)ncc3F)cc21 [Compound (I), 5-fluoro-4-(8-fluoro-4-isopropyl-3,4-dihydro-2H-benzo[b][1,4]oxazin-6-yl)-N-(5-(1-methylpiperidin-4-yl)pyridin-2-yl)pyrimidin-2-amine]
[1]
  Inhibitory effect in cell viability assay: significant inhibitory effects
[1]; read-out: Absolute GI50 values, range over 7 cell lines
  GI50: 156 to 1240 nM
[2]; 30 mg/kg oral QD
  Antitumor activity over the course of the treatment: statistically significant antitumor activity
  Tumor regression: tumor regression in all cases
[2]; day 39 of treatment
  Mice with 100% reduction in tumor volume: one
  Mice with >50% reduction in tumor volume: 3 of 10
PC-9-luc; 144 h, 6 days incubation, read-out: Absolute GI50
  GI50: 2790 nM
PC-9-luc; [3]
  Max (%): 116.3%
  Min (%): −13.7%
SK-MEL-3; Homo sapiens, SK-MEL3, read-out: Absolute GI50
  GI50: 174 nM
SK-MEL-3; inhibition rate
  Max (%): 111.93%
  Min (%): −1.51%
